In paper PMC5429603, “Discovery and characterization of verinurad, a potent and specific inhibitor of URAT1 for the treatment of hyperuricemia and gout” (Scientific Reports, 2017):

Key:
[1] = molecular target: rat URAT1 r-T26V (Rattus norvegicus, UniProt Q3ZAV1, T26V); experiment: cell-based
Source text: (§1) Human URAT1 (GenBank BC053348.1, Homo sapiens SLC22A12), rat URAT1 (NCBI NM_001034943.1, Rattus norvegicus Slc22a12) and human OAT4 (NCBI NM_018484.2, Homo sapiens SLC22A11) genes were purchased from Origene Technologies, Inc. and subcloned into pCMV6/neo using NotI. Where indicated, controls transfections used pCMV6/neo. Mutants were produced by site-directed mutagenesis using the QuikChange Lightning Multi Site-Directed Mutagenesis Kit (Agilent Technologies). […] Mutagenic primer sequences are provided in ref. [15] and mutagenic primer sequences for previously unreported mutants shown in Supplementary Table 1. All constructs used in this study were untagged. Human OAT1 was purchased from Fisher Scientific (catalog # MHS1010–7508183 in pSPORT6, NCBI NM_153276.2, Homo sapiens SLC22A6).
(§2) HEK-293T cells were maintained in DMEM/high glucose/L-glutamine/HEPES supplemented with 1 mM sodium pyruvate (Life Technologies) and 10% FBS (PAA Laboratories) at 37 °C in 5% CO2. To express URAT1, OAT4 or OAT1, plasmids were reverse transfected into HEK-293T cells. DNA (10 µg) was mixed with 30 µl of DreamFect Gold (Boca Scientific) in 2 ml OptiMem (Life Technologies). After 20 minutes, 18 ml of media containing 2 × 10^7 cells in suspension was added and mixed, and 200 µl per well were plated onto white clear-bottomed poly-D-lysine coated 96-well plates (BD Biosciences). The cells were assayed the following day.
(§3) URAT1 and OAT4 activity assays were performed in assay buffer consisting of 25 mM MES pH 5.5 (from a 1 M MES solution [Sigma] adjusted to pH 5.5 with sodium hydroxide), 125 mM sodium gluconate, 4.8 mM potassium gluconate, 1.2 mM monobasic potassium phosphate, 1.2 mM magnesium sulfate, 1.3 mM calcium gluconate and 5.6 mM glucose. URAT1 inhibitors were serially diluted into assay buffer and added to the cells for 5 minutes prior to addition of substrate. URAT1-expressing cells were incubated with 100 µM ^14C-uric acid for 10 minutes and OAT4-expressing cells were incubated with 20 µM carboxyfluorescein (Life Technologies, Inc.) for 5 minutes. Cells were then washed three times in 25 mM MES pH 5.5/125 mM sodium gluconate, and solubilized in Ultima Gold (Perkin Elmer) prior to liquid scintillation counting. Each treatment was measured in triplicate.

[2] = molecular target: rat URAT1 r-Y365F/M481I (Rattus norvegicus, UniProt Q3ZAV1, M481I/Y365F); experiment: cell-based
Source text: as §1, §2, §3

[3] = molecular target: rat URAT1 r-P27S (Rattus norvegicus, UniProt Q3ZAV1, P27S); experiment: cell-based
Source text: as §1, §2, §3

[4] = molecular target: rat URAT1 r-V22M (Rattus norvegicus, UniProt Q3ZAV1, V22M); experiment: cell-based
Source text: as §1, §2, §3

[5] = molecular target: rat URAT1 r-L18V (Rattus norvegicus, UniProt Q3ZAV1, L18V); experiment: cell-based
Source text: as §1, §2, §3

[6] = molecular target: rat URAT1 r-V31L (Rattus norvegicus, UniProt Q3ZAV1, V31L); experiment: cell-based
Source text: as §1, §2, §3

[7] = molecular target: rat URAT1 r-N35S/M481I (Rattus norvegicus, UniProt Q3ZAV1, M481I/N35S); experiment: cell-based
Source text: as §1, §2, §3

[8] = molecular target: rat URAT1 r-N35S/Y365F (Rattus norvegicus, UniProt Q3ZAV1, N35S/Y365F); experiment: cell-based
Source text: as §1, §2, §3

[9] = molecular target: rat URAT1 r-L29M (Rattus norvegicus, UniProt Q3ZAV1, L29M); experiment: cell-based
Source text: as §1, §2, §3

[10] = molecular target: rat URAT1 r-A21T (Rattus norvegicus, UniProt Q3ZAV1, A21T); experiment: cell-based
Source text: as §1, §2, §3

[11] = molecular target: T1, rat URAT1-Y365F (Rattus norvegicus, UniProt Q3ZAV1, Y365F); experiment: URAT1 activity assay, r-Y365F; assay type: cell-based
T1 construct: expressed in transfected cells; host or cells: HEK-293T
T1 sequence (Q3ZAV1 1-553 Y365F): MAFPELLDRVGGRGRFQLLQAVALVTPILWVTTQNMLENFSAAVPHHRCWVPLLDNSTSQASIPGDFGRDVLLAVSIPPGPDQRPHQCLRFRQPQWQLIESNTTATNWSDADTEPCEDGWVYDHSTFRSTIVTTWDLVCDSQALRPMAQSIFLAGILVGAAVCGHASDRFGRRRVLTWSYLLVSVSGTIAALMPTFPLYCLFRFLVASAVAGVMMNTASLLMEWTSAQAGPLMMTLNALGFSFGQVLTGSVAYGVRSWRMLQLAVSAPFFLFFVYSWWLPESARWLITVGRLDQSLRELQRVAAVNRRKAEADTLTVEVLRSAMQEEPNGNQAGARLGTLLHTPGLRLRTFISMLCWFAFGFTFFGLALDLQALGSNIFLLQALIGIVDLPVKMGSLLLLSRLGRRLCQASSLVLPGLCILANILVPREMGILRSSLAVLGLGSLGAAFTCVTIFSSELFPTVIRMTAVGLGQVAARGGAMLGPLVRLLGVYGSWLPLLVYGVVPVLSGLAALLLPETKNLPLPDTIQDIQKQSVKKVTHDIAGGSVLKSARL
Source text: as §1
(§4) HEK-293T cells were maintained in DMEM/high glucose/L-glutamine/HEPES supplemented with 1 mM sodium pyruvate (Life Technologies) and 10% FBS (PAA Laboratories) at 37 °C in 5% CO2. […]
(§5) URAT1 and OAT4 activity assays were performed in assay buffer consisting of 25 mM MES pH 5.5 (from a 1 M MES solution [Sigma] adjusted to pH 5.5 with sodium hydroxide), 125 mM sodium gluconate, 4.8 mM potassium gluconate, 1.2 mM monobasic potassium phosphate, 1.2 mM magnesium sulfate, 1.3 mM calcium gluconate and 5.6 mM glucose. […] Each treatment was measured in triplicate.

[12] = molecular target: T2, human URAT1 h-S35N (Homo sapiens, UniProt Q96S37, S35N); experiment: URAT1 activity assay, h-S35N; assay type: cell-based
T2 construct: expressed in transfected cells; host or cells: HEK-293T
Source text: as §1, §4, §5

[13] = molecular target: T3, human URAT1 h-I481M (Homo sapiens, UniProt Q96S37, I481M); experiment: URAT1 activity assay, h-I481M; assay type: cell-based
T3 construct: expressed in transfected cells; host or cells: HEK-293T
Source text: as §1, §4, §5

[14] = molecular target: T4, rat URAT1 r-T32C (Rattus norvegicus, UniProt Q3ZAV1, T32C); experiment: URAT1 activity assay, r-T32C; assay type: cell-based
T4 construct: expressed in transfected cells; host or cells: HEK-293T
Source text: as §1, §4, §5

[15] = molecular target: T5, human OAT4 (Homo sapiens, UniProt Q9NSA0); experiment: OAT4 activity assay (carboxyfluorescein transport); assay type: cell-based
T5 construct: host or cells: HEK-293T
Procedure: as §2
as §3, with “Cells were then washed three times in 25 mM MES pH 5.5/125 mM sodium gluconate, and solubilized in Ultima Gold (Perkin Elmer) prior to liquid scintillation counting.” left out

[16] = TM1 point mutant, read-out: Verinurad affinity (IC50)

T4 sequence (Q3ZAV1 whole entry T32C): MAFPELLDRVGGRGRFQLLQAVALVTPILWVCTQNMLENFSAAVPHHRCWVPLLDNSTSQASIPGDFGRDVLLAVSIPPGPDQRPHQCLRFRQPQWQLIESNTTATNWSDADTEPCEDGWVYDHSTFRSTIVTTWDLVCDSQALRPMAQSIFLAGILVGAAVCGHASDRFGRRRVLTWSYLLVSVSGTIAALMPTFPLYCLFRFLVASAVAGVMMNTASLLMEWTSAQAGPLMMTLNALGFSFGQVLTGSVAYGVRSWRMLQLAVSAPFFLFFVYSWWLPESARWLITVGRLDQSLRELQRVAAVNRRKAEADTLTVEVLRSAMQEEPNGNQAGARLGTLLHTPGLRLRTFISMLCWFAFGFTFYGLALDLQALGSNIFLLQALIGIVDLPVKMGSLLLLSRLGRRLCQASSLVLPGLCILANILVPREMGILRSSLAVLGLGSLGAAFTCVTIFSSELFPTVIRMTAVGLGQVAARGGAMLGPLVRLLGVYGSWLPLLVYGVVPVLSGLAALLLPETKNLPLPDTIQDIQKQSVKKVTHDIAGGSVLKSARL
T2 sequence (Q96S37 whole entry S35N): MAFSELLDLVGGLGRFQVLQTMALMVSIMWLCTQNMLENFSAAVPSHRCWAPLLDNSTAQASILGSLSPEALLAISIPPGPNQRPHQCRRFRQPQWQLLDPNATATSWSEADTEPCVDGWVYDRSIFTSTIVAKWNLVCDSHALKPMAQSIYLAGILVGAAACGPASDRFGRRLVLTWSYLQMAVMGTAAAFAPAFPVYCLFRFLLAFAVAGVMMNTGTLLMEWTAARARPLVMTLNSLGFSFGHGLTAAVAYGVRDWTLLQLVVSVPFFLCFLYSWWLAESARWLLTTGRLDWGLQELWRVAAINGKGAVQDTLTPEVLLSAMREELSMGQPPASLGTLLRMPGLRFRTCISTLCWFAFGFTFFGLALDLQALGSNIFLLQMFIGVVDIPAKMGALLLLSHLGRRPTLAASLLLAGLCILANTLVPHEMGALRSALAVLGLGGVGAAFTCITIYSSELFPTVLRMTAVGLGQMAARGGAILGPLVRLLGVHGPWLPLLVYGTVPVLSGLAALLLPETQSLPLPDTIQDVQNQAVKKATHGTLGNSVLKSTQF
T3 sequence (Q96S37 whole entry I481M): as the sequence (Q96S37 whole entry S35N) above, with N35S, I481M counted along it
rat URAT1 r-P27S, sequence (Q3ZAV1 whole entry P27S): as the sequence (Q3ZAV1 whole entry T32C) above, with P27S, C32T counted along it
T5 sequence (Q9NSA0 whole entry): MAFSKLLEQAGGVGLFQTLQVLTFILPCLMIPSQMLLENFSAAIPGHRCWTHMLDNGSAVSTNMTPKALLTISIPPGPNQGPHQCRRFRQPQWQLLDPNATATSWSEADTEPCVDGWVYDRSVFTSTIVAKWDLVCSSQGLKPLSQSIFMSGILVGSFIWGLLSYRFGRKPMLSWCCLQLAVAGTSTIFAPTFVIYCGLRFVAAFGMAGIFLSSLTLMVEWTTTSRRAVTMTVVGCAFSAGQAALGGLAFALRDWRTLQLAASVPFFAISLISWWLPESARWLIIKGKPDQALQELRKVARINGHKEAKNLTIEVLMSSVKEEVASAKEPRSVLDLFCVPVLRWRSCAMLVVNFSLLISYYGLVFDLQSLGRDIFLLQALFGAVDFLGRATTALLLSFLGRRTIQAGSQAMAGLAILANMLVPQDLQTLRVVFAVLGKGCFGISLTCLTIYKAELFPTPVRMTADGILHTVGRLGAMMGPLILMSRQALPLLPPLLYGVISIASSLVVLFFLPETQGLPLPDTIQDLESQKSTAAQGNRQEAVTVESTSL
rat URAT1 r-V31L, sequence (Q3ZAV1 whole entry V31L): as the sequence (Q3ZAV1 whole entry T32C) above, with V31L, C32T counted along it
rat URAT1 r-N35S/M481I, sequence (Q3ZAV1 whole entry N35S/M481I): as the sequence (Q3ZAV1 whole entry T32C) above, with C32T, N35S, M481I counted along it
rat URAT1 r-Y365F/M481I, sequence (Q3ZAV1 whole entry Y365F/M481I): as the sequence (Q3ZAV1 whole entry T32C) above, with C32T, Y365F, M481I counted along it
rat URAT1 r-N35S/Y365F, sequence (Q3ZAV1 whole entry N35S/Y365F): as the sequence (Q3ZAV1 whole entry T32C) above, with C32T, N35S, Y365F counted along it
rat URAT1 r-L29M, sequence (Q3ZAV1 whole entry L29M): as the sequence (Q3ZAV1 whole entry T32C) above, with L29M, C32T counted along it
rat URAT1 r-A21T, sequence (Q3ZAV1 whole entry A21T): as the sequence (Q3ZAV1 whole entry T32C) above, with A21T, C32T counted along it
rat URAT1 r-V22M, sequence (Q3ZAV1 whole entry V22M): as the sequence (Q3ZAV1 whole entry T32C) above, with V22M, C32T counted along it
rat URAT1 r-L18V, sequence (Q3ZAV1 whole entry L18V): as the sequence (Q3ZAV1 whole entry T32C) above, with L18V, C32T counted along it
rat URAT1 r-T26V, sequence (Q3ZAV1 whole entry T26V): as the sequence (Q3ZAV1 whole entry T32C) above, with T26V, C32T counted along it

CC(C)(Sc1ccncc1-c1ccc(C#N)c2ccccc12)C(=O)O [Verinurad, 2-((3-(4-cyanonaphthalen-1-yl)pyrindin-4-yl)thio)-2-methylpropanoic acid]
IC50 [1]: 39 ± 5.5 µM
IC50 [2]: 0.59 µM
IC50 [3]: 27 ± 3.4 µM
fold increase in affinity ([3]; printed r-S27P, vs rat URAT1): 1.5 fold
IC50 [4]: 43 ± 2.5 µM
IC50 [5]: 40 ± 6.1 µM
IC50 [6]: 29 ± 3.2 µM
IC50 [7]: 4.43 µM
IC50 [8]: 0.47 µM
IC50 [9]: 29 ± 3.3 µM
IC50 [10]: 36 ± 5.2 µM
fold higher affinity compared to rat URAT1 [11]: 14 fold
IC50 ([11]; TM7 point mutant, read-out: Verinurad affinity (IC50)): 2.9 ± 1.3 µM
fold lower affinity relative to human URAT1 [12]: 14 fold
IC50 [12, 16]: 0.36 ± 0.15 µM
fold reduction in affinity compared to human URAT1 [13]: 2 fold
IC50 ([13]; TM11 point mutant, read-out: Verinurad affinity (IC50)): 0.053 ± 0.01 µM
fold increase in affinity relative to rat URAT1 [14]: 1.4 fold
IC50 [14, 16]: 29 ± 3.1 µM
IC50 ([15]; human OAT4 in HEK-293T, 20 µM carboxyfluorescein, read-out: IC50, inhibition of transport activity): 5.9 ± 1.4 µM
fold lower affinity compared to URAT1 ([15]; human OAT4 vs human URAT1): approximately 200 fold
